{"source": "patent US20110251289A1", "about": "“NEW COMPOUNDS FOR THE TREATMENT OF CANCER” (CSIR, priority 2008, published 2011)", "format_in_all_cases": "cell-based", "key": {"Actinomyces pyogenes": {"test_system": "Actinomyces pyogenes", "assay": "growth inhibition of bacterial cells", "excerpt": "(§1) This selective inhibition of the growth of eukaryotes versus prokaryotes is a useful characteristic of the compound."}, "[1]": {"test_system": "Bordetella bronchiseptica", "assay": "growth inhibition of bacterial cells", "excerpt": "as §1"}, "[2]": {"test_system": "Staphylococcus intermedius", "assay": "growth inhibition of bacterial cells", "details": "Staphylococcus intermedius (3 strains)", "excerpt": "as §1"}, "[3]": {"test_system": "Sphingobacterium spritivorum", "assay": "growth inhibition of bacterial cells", "excerpt": "as §1"}, "Pasteurella haemolytica": {"test_system": "Pasteurella haemolytica", "assay": "growth inhibition of bacterial cells", "excerpt": "as §1"}, "[4]": {"test_system": "Selenastrum capricornumtum", "assay": "algal growth inhibition test", "details": "1 mM to 0.063 mM, 72 hrs exposure, optical density relative to control", "procedure": "The algal (Selenastrum capricornumtum) growth inhibition test involves exposing the unicellular algae to the toxicant for 72 hrs, under defined conditions: at a temperature of 24° C. and in a test facility fitted with a cool white fluorescent light with a light intensity of ±4000 lux. The test facility is free of vapour, odours and dust which may be toxic to the algae.\nGrowth inhibition is measured as a reduction in growth rate relative to the control and is determined in terms of optical density. Definitive tests (testing serial dilutions) are carried out. The percentage growth inhibition in each test is usually reported as Effect or the 72 hr EC20 or EC50."}, "HeLa cancer cells": {"test_system": "HeLa cancer cells", "assay": "activity against HeLa cancer cells (toxicity, IC50)"}, "human lymphocytes": {"test_system": "human lymphocytes", "assay": "toxicity to human lymphocytes (IC50)", "details": "Lymphocyte"}, "[5]": {"test_system": "MCF cells (breast cancer cells)", "assay": "MTT cytotoxicity assay, MCF cells", "details": "200 μM, 48 h", "procedure": "(§2) In addition, when HeLa and MCF cells (breast cancer cells) were exposed to 200 μM pavetamine for 48 h, 30% cell death occurred for HeLa cells and 25% for the MCF cells. The MTT (3-(4,5-dimethyl-2-thiazolyl)-2,5-diphenyl-2H-tetrazolium bromide) assay (Sigma, St Louis, USA) was used to measure the cytotoxicity of pavettamine in these cell lines."}, "HeLa cells": {"test_system": "HeLa cells", "assay": "MTT cytotoxicity assay, HeLa cells", "details": "200 μM, 48 h", "procedure": "as §2"}, "Rhodotorula mucilaginosa": {"test_system": "Rhodotorula mucilaginosa", "assay": "growth inhibition of fungal and yeast cells", "excerpt": "as §1"}, "Debaryomyces hansenii": {"test_system": "Debaryomyces hansenii", "assay": "growth inhibition of fungal and yeast cells", "excerpt": "as §1"}, "Penicillium expansum": {"test_system": "Penicillium expansum", "assay": "growth inhibition of fungal and yeast cells", "excerpt": "as §1"}, "Aspergillus clavatus": {"test_system": "Aspergillus clavatus", "assay": "growth inhibition of fungal and yeast cells", "excerpt": "as §1"}}}
{"smiles": "NC[C@@H](O)C[C@@H](O)CNC[C@H](O)C[C@H](O)CN", "note": "[pavettamine, (2S,4R,8R,10S)-1,11-diamino-6-aza-undecane-2,4,8,10-tetraol]", "values": [{"measurement": "inhibitory activity towards growth of bacterial cells", "setting": "Actinomyces pyogenes", "result": "no inhibitory activity"}, {"measurement": "inhibitory activity towards growth of bacterial cells", "setting": "[1]", "result": "no inhibitory activity"}, {"measurement": "inhibitory activity towards growth of bacterial cells", "setting": "[2]", "result": "no inhibitory activity"}, {"measurement": "inhibitory activity towards growth of bacterial cells", "setting": "[3]", "result": "no inhibitory activity"}, {"measurement": "inhibitory activity towards growth of bacterial cells", "setting": "Pasteurella haemolytica", "result": "no inhibitory activity"}, {"measurement": "growth inhibition of algae", "setting": "[4]", "result": "≥ 98", "unit": "%"}, {"measurement": "times more toxic to HeLa cancer cells than to human lymphocytes", "setting": "HeLa cancer cells; HeLa cancer cells versus human lymphocytes", "result": 10, "unit": "×"}, {"measurement": "IC50", "setting": "HeLa cancer cells; Homo sapiens, HeLa", "result": 0.2, "unit": "µg/mL"}, {"measurement": "IC50", "setting": "human lymphocytes", "result": 2, "unit": "µg/mL"}, {"measurement": "cell death, MCF cells", "setting": "[5]", "result": 25, "unit": "%"}, {"measurement": "cell death, HeLa cells", "setting": "HeLa cells", "result": 30, "unit": "%"}, {"measurement": "inhibitory activity towards growth of fungal and yeast cells", "setting": "Rhodotorula mucilaginosa", "result": "inhibitory activity"}, {"measurement": "inhibitory activity towards growth of fungal and yeast cells", "setting": "Debaryomyces hansenii", "result": "inhibitory activity"}, {"measurement": "inhibitory activity towards growth of fungal and yeast cells", "setting": "Penicillium expansum", "result": "inhibitory activity"}, {"measurement": "inhibitory activity towards growth of fungal and yeast cells", "setting": "Aspergillus clavatus", "result": "inhibitory activity"}]}
